Tests used:
hKV10.1a = target: T1, hKV10.1a (Homo sapiens, UniProt O95259); assay: Two-electrode voltage-clamp recordings of KV10.1 currents in Xenopus laevis oocytes; type: cell-based; details: for KV10.1 inhibitory activity in words (structure-activity discussion): based on inhibition at 40 μM (Fig 5)
T1 construct: expressed in transfected cells; host or cells: Xenopus laevis oocytes injected with cRNA transcribed from the hKV10.1a-pSGEM plasmid
T1 sequence (O95259 1-962 isoform O95259-2): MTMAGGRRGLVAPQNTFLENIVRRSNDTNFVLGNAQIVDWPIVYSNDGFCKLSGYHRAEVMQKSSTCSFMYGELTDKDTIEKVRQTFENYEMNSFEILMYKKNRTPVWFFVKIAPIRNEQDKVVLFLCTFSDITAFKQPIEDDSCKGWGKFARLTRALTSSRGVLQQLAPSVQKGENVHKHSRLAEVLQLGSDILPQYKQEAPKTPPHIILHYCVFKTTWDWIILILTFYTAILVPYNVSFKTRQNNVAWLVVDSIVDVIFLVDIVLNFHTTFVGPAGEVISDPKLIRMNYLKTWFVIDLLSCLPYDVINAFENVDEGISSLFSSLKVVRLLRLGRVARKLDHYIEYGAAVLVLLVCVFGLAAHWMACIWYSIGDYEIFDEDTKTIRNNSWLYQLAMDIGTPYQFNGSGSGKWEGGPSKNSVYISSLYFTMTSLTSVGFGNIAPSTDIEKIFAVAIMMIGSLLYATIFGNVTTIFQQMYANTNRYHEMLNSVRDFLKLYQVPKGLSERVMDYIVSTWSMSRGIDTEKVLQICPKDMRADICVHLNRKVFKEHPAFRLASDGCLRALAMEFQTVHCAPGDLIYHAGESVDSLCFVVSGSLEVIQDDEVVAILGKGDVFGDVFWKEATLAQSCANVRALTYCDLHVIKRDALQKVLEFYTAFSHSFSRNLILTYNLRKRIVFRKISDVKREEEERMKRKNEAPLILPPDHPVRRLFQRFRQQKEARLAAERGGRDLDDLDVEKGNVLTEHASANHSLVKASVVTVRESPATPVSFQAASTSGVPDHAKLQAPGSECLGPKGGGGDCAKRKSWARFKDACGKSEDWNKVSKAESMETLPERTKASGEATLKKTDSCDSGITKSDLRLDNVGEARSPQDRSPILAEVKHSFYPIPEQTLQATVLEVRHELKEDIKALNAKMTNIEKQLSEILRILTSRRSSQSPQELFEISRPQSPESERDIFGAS
Source text: For the expression of hKV10.1a (GeneBank accession number: NM_002238.3) in Xenopus oocytes, the hKV10.1a-pSGEM plasmid was linearized with SfiI (ThermoFisher Scientific, Waltham, Massachusetts, USA) and transcribed using the T7 mMESSAGE-mMACHINE transcription kit (Ambion®, Carlsbad, California, USA).
Stage V-VI Xenopus laevis (African clawed frog) oocytes were isolated by partial ovariectomy. Mature female animals were purchased from Nasco (Fort Atkinson, Wisconsin, USA) and were housed in the Aquatic Facility (KU Leuven) in compliance with the regulations of the European Union (EU) concerning the welfare of laboratory animals as declared in Directive 2010/63/EU. The use of Xenopus laevis was approved by the Animal Ethics Committee of the KU Leuven (Project nr. P038/2017). Prior to harvesting the oocytes, the animals were anesthetized by a 15-min submersion in 0.1% tricaine methanesulfonate (pH 7.0). Isolated oocytes were defolliculated with 1.5 mg/mL collagenase.
Defolliculated oocytes were injected with 4 nL of cRNA at a concentration of 1 ng/nL using a micro-injector (Drummond Scientific®, Broomall, Pennsylvania, USA). The oocytes were incubated in a solution containing (in mM): NaCl, 96; KCl, 2; CaCl2, 1.8; MgCl2, 2 and HEPES, 5 (pH 7.4), supplemented with 50 mg/L gentamycin sulfate.
Two-electrode voltage-clamp recordings were performed at room temperature (18–22°C) using a Geneclamp 500 amplifier (Molecular Devices, USA) controlled by a pClamp data acquisition system (Axon Instruments®, Union City, California, USA). Whole cell currents from oocytes were recorded 1–4 days after injection. Bath solution composition was (in mM): NaCl, 96; KCl, 2; CaCl2, 1.8; MgCl2, 2 and HEPES, 5 (pH 7.5). Voltage and current electrodes were filled with a 3 M solution of KCl in H2O. Resistances of both electrodes were kept between 0.5 and 1.5 MΩ. The elicited KV10.1 currents were filtered at 1 kHz and sampled at 2 kHz using a four-pole low-pass Bessel filter. Leak subtraction was performed using a -P/4 protocol. KV10.1 currents were evoked by 2-s depolarizing pulses to 0 mV from a holding potential of -90 mV unless otherwise indicated.
All electrophysiological data are presented as means ± S.E.M of n ≥ 3 independent experiments unless otherwise indicated. All data was analyzed using pClamp Clampfit 10.4 (Molecular Devices®, Downingtown, Pennsylvania, USA) and OriginPro 8 (Originlab®, Northampton, Massachusetts, USA) or GraphPad Prism 5 software (GraphPad Software, Inc., San Diego, California, USA).

[1] = 40 μM, extracellular perfusion, average ± SEM, read-out: KV10.1 current inhibition

| SMILES | inhibition at 40 µM (hKV10.1a; [1]) [%] | melting point [°C] | also measured |
| --- | --- | --- | --- |
| CNCCCOc1c(Br)cc(CCNC(=O)c2cc(F)c(OC)c(F)c2)cc1Br [Compound 46] | 14 ± 5 | 87 to 92 |  |
| CN(C)CCCc1c(Br)cc(CCNC(=O)c2cc(Cl)cc(Cl)c2)cc1Br [Compound 16] |  | 83 to 84.5 |  |
| O=C(NCCc1ccc(O)cc1)c1cc(Cl)cc(Cl)c1 [Compound 34] |  |  | KV10.1 current inhibition (hKV10.1a; 40 μM, extracellular perfusion, average ± SEM): 0 ± 0% |
| COCC(=O)O[C@]1(CCN(C)CCCc2nc3ccccc3[nH]2)CCc2cc(F)ccc2[C@@H]1C(C)C [mibefradil, reference compound] |  |  | inhibition at 10 µM (hKV10.1a; 10 μM, 2-s depolarizing pulses to 0 mV from -90 mV, read-out: KV10.1 current inhibition): 50 ± 5% |
| COc1c(F)cc(C(=O)NCCc2cc(Br)c(CCCN(C)C)c(Br)c2)cc1F [Compound 28] |  | 93 to 96 |  |
| CN(C)CCCOc1ccc(CCNC(=O)c2cc(Cl)cc(Cl)c2)cc1 [Compound 35] | 4 ± 4 |  | KV10.1 inhibitory activity in words (structure-activity discussion) (hKV10.1a): abolished the activity |
| COc1c(Cl)cc(C(=O)NCCc2cc(Br)c(CCCN(C)C)c(Br)c2)cc1Cl [Compound 23] |  | 91 to 95 |  |
| CC(C)CCCOc1c(Br)cc(CCNC(=O)c2cc(Cl)cc(Cl)c2)cc1Br [Compound 33] | 0 | 107.5 to 109 | KV10.1 inhibitory activity in words (structure-activity discussion) (hKV10.1a): total loss of the activity |
| CNCCCOc1c(Br)cc(CCNC(=O)c2cc(Cl)c(OC)c(Cl)c2)cc1Br [Compound 45] | 39 ± 7 | 86 to 97 |  |
| CCOc1c(Cl)cc(C(=O)NCCc2cc(Br)c(CCCN(C)C)c(Br)c2)cc1Cl [Compound 24] |  | 73 to 75 |  |

Second part, led by results:

| inhibition at 40 µM (hKV10.1a; [1]) [%] | melting point [°C] | SMILES | also measured |
| --- | --- | --- | --- |
| 9 ± 5 | 89 to 97 | CNCCCOc1c(Br)cc(CCNC(=O)c2ccc(OC)cc2)cc1Br [Compound 43] |  |
| 35 ± 2 |  | CN(C)CCCOc1c(Br)cc(CCNC(=O)c2cc(F)cc(F)c2)cc1Br [Compound 18] |  |
| 80 ± 4 |  | COc1ccc(C(=O)NCCc2cc(Br)c(OCCCN(C)C)c(Br)c2)cc1Br [Compound 25] |  |
| 65 ± 1 | 83 to 89 | COc1ccc(C(=O)NCCc2cc(Br)c(OCCCN(C)C)c(Br)c2)cc1F [Compound 27] |  |
| 50 ± 3 |  | CN(C)CCCOc1c(Br)cc(CCNC(=O)c2cncc(Br)c2)cc1Br [Compound 15] |  |
| 44 ± 4 |  | COc1ccc(C(=O)NCCc2cc(Br)c(OCCCN(C)C)c(Br)c2)cc1OC [Compound 31] |  |
| 58 ± 1 |  | CNCCCOc1c(Br)cc(CCNC(=O)c2ccc(OC)c(Cl)c2)cc1Br [Compound 44] |  |
| 22 ± 3 |  | CN(C)CCCOc1c(Br)cc(CCNC(=O)c2ccc(Br)cc2)cc1Br [Compound 14] |  |
|  | 106 to 109 | COc1ccc(C(=O)NCCc2cc(Br)c(CCCN(C)C)c(Br)c2)cc1 [Compound 21] |  |
| 80 ± 2 |  | COc1ccc(C(=O)NCCc2cc(Br)c(OCCCN(C)C)c(Br)c2)cc1C [Compound 30] |  |
| 0 | 123 to 124 | CC(C)CCCOc1c(Br)cc(CCNC(=O)c2cc(Br)cc(Br)c2)cc1Br [Compound 32] | KV10.1 inhibitory activity in words (structure-activity discussion) (hKV10.1a): total loss of the activity |
| 79 ± 2 |  | COc1ccc(C(=O)NCCc2cc(Br)c(OCCCN(C)C)c(Br)c2)cc1I [Compound 29] |  |
| 27 ± 4 |  | CN(C)CCCOc1c(Br)cc(CCNC(=O)c2ccccc2Br)cc1Br [Compound 12] |  |
|  | 83 to 85 | COc1c(Br)cc(C(=O)NCCc2cc(Br)c(CCCN(C)C)c(Br)c2)cc1Br [Compound 26] |  |
| 32 ± 4 | 70 to 72 | CN(C)CCCOc1c(Br)cc(CCNC(=O)c2ccccc2F)cc1Br [Compound 19] |  |

From publication PMC5722316, “Synthesis of novel purpurealidin analogs and evaluation of their effect on the cancer-relevant potassium channel KV10.1” (PLoS ONE, 2017)
